Where a name gives a salt, the structure may show the parent alone.
melting point | SMILES
145 to 147 °C | Nc1nc2ccccc2n1CCCCCCn1c(N)nc2ccccc21 (as salt: HCl) [Compound 1b, 1,6-Bis(2-aminobenzimidazol-1-yl)hexane]
257 to 258 °C | Nc1nc2ccccc2n1CCn1c(N)nc2ccccc21 [Compound 1e, 1,2-Bis(2-aminobenzimidazol-1-yl)ethane]
220 °C (dec.) | Nc1nc2ccccc2n1CCCn1c(N)nc2ccccc21 [Compound 1d, 1,3-Bis(2-aminobenzimidazol-1-yl)propane]

Reference: patent US6569880B2, “Bis(benzimidazole) derivatives serving as potassium blocking agents” (Neurosearch A/S, priority 1998, dated 2003)
